Patent US20170065566A1, “PHARMACEUTICAL COMBINATIONS COMPRISING ANTIBACTERIAL AGENTS” (WOCKHARDT LIMITED, priority 2014, published 2017)
Where a name gives a salt, the structure may show the parent alone.

Test system: E. coli 7MP strain producing CMY type, SHV, TEM beta-lactamase enzymes
Experiment: Time kill study (viable bacterial count)
Format: cell-based
Conditions: for Effect on bacterial count of E. coli throughout the duration of the study (in words): alone or in combination; for Bacterial count (Log10 CFU/ml) 0 hour / Bacterial count (Log10 CFU/ml) 2 hour / Bacterial count (Log10 CFU/ml) 4 hour / Bacterial count (Log10 CFU/ml) 6 hour / Bacterial count (Log10 CFU/ml) 8 hour: time kill
Description: The synergistic killing effect of the combinations according to invention was studied by performing time kill studies. In a typical time kill study, the freshly grown cultures were diluted to the required cell density (initial starting inoculum) in Cation adjusted Muller Hinton broth medium (BD, USA). The antibacterial agents (either alone or in combination) at the required concentrations were added into the culture-containing medium. The samples were incubated under shaking condition (120 rpm) at 37° C. Enumeration of viable bacterial count was done every 2 hour by diluting in normal saline and plating on to the Tryptic Soya Agar plates (BD, USA). The plates were incubated for 24 hours to arrive at the viable bacterial count. […] In general, the decrease of 1 Log CFU/ml, corresponds to 90% killing of bacteria. Similarly, 2 Log CFU/ml reductions indicates to 99% killing of bacteria and 3 Log CFU/ml reductions is equal to 99.9% killing of bacteria.
The assay without any antibacterial agent was taken as control.

[1] = each active ingredient at 4 mcg/ml

Structure (SMILES)	Effect on bacterial count of E. coli throughout the duration of the study (in words) [1]	Bacterial count (Log10 CFU/ml) 0 hour [1]	Bacterial count (Log10 CFU/ml) 2 hour [1]	Bacterial count (Log10 CFU/ml) 4 hour [1]	Bacterial count (Log10 CFU/ml) 6 hour [1]	Bacterial count (Log10 CFU/ml) 8 hour [1]	Bacterial count (Log10 CFU/ml) 0 hour (2 mcg/ml)	Bacterial count (Log10 CFU/ml) 2 hour (2 mcg/ml)	Bacterial count (Log10 CFU/ml) 4 hour (2 mcg/ml)	Bacterial count (Log10 CFU/ml) 6 hour (2 mcg/ml)	Bacterial count (Log10 CFU/ml) 8 hour (2 mcg/ml)
CO/N=C(\C(=O)N[C@@H]1C(=O)N2C(C(=O)[O-])=C(C[N+]3(C)CCCC3)CS[C@H]12)c1csc(N)n1 [Cefepime, cefepime]	not effective in decreasing the bacterial count	7.51 Log10 CFU/ml	8.47 Log10 CFU/ml	9.19 Log10 CFU/ml	9.20 Log10 CFU/ml	9.30 Log10 CFU/ml					
CO/N=C(\C(=O)N[C@@H]1C(=O)N2C(C(=O)[O-])=C(C[n+]3cccc4c3CCC4)CS[C@H]12)c1csc(N)n1 [Cefpirome, cefpirome]	not effective in decreasing the bacterial count	7.51 Log10 CFU/ml	8.87 Log10 CFU/ml	9.27 Log10 CFU/ml	9.20 Log10 CFU/ml	9.25 Log10 CFU/ml					
C[C@@H](O)[C@H]1C(=O)N2C(C(=O)O)=C(SCCN=CN)C[C@H]12 [Imipenem, imipenem]							7.51 Log10 CFU/ml	3.95 Log10 CFU/ml	3.60 Log10 CFU/ml	4.81 Log10 CFU/ml	5.90 Log10 CFU/ml
N#C[C@@H]1CC[C@@H]2CN1C(=O)N2OS(=O)(=O)O [Sodium salt of a compound of Formula (I), sodium salt of sulphuric acid, mono[(1R,2S,5R)-2-cyano-7-oxo-1,6-diazabicyclo[3.2.1]oct-6-yl] ester]	not effective in decreasing the bacterial count	7.51 Log10 CFU/ml	8.87 Log10 CFU/ml	9.36 Log10 CFU/ml	9.20 Log10 CFU/ml	9.20 Log10 CFU/ml					
